Assays:
PsOYE2 = biological target: T1, PsOYE2 (Penicillium steckii, UniProt A0A1V6SMJ6); assay: X-ray crystal structure, […] Å; format: binding; settings: co-purified cofactor; site completed by adjacent protomer
T1 construct: gene PENSTE_c029G02105; tag-free, His-SUMO fusion cut off, expressed in E. coli; homodimer; residues 2-413 seen, C-terminus 414-422 not visible
T1 sequence (A0A1V6SMJ6 1-422): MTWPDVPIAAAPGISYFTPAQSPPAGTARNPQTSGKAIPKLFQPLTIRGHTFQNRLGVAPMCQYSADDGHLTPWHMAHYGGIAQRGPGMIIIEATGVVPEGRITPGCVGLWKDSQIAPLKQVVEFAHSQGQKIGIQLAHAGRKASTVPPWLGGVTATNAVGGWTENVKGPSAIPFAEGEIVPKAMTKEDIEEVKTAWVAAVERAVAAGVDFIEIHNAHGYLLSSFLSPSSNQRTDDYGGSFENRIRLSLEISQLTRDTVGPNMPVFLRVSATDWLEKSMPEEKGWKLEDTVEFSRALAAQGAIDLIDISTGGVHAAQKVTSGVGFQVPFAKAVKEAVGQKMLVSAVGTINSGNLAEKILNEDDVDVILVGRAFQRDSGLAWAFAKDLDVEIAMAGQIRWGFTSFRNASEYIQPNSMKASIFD

PsOYE4 [1] = biological target: T2, PsOYE4 (Penicillium steckii, UniProt A0A1V6TQX2); assay: UV-Vis flavin spectrum of purified enzyme, FMN release on denaturation; format: binding; settings: co-purified cofactor
T2 construct: gene PENSTE_c003G03501

PsOYE3 = biological target: T3, PsOYE3 (Penicillium steckii, UniProt A0A1V6SNM3); assay: as above; format: binding; settings: co-purified cofactor
T3 construct: gene PENSTE_c027G02138
T3 sequence (A0A1V6SNM3 1-421): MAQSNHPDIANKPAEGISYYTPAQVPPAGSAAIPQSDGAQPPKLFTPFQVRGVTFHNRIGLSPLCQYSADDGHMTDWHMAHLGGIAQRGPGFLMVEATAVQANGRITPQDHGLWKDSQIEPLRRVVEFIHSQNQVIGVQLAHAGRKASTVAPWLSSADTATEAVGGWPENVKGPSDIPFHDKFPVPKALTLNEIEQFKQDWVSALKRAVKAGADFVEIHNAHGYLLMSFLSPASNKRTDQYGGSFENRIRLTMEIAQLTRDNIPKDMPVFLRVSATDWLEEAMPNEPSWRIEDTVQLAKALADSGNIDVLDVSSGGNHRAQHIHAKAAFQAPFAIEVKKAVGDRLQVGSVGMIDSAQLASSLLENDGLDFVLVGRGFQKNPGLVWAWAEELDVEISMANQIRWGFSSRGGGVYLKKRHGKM

PsOYE6 = biological target: T4, PsOYE6 (Penicillium steckii, UniProt A0A1V6SJW2); assay: as above; format: binding; settings: co-purified cofactor
T4 construct: gene PENSTE_c042G09698
T4 sequence (A0A1V6SJW2 1-370): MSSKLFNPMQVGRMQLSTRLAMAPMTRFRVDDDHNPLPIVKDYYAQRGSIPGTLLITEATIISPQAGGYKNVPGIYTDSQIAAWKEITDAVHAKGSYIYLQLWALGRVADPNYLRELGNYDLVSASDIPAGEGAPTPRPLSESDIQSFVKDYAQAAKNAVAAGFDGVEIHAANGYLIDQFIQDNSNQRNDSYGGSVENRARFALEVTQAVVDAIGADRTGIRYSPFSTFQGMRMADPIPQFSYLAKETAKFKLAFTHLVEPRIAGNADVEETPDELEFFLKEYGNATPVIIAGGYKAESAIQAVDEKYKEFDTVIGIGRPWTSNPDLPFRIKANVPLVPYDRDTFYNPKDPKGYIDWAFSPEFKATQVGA

PsOYE1 = biological target: T5, PsOYE1 (Penicillium steckii, UniProt A0A1V6T993); assay: as above; format: binding; settings: co-purified cofactor
T5 construct: gene PENSTE_c009G01003
T5 sequence (A0A1V6T993 1-408): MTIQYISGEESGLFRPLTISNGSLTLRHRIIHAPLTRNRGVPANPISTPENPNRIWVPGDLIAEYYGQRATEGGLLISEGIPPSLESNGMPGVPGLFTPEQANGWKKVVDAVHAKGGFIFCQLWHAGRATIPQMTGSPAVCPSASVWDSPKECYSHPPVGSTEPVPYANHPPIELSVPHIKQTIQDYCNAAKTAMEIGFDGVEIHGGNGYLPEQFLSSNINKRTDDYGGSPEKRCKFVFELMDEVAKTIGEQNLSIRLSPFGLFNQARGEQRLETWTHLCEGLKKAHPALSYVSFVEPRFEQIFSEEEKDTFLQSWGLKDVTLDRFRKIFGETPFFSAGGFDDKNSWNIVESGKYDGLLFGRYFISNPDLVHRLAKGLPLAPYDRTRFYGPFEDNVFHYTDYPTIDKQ

PsOYE4 [2] = biological target: T2, PsOYE4; assay: steady-state kinetics, NADPH consumption, Michaelis-Menten fit; format: biochemical; settings: co-substrate p-benzoquinone
Excerpt: steady-state kinetics, NADPH consumption, Michaelis-Menten fit on PsOYE4

Row | Km (PsOYE4 [2]) | Structure (SMILES) | X-ray crystal structure, 2.3 Å (PsOYE2) | UV-Vis flavin spectrum of purified enzyme, FMN release on denaturation (PsOYE4 [1]) | UV-Vis flavin spectrum of purified enzyme, FMN release on denaturation (PsOYE3) | UV-Vis flavin spectrum of purified enzyme, FMN release on denaturation (PsOYE6) | UV-Vis flavin spectrum of purified enzyme, FMN release on denaturation (PsOYE1)
1 | – | Cc1cc2nc3c(=O)[nH]c(=O)nc-3n(C[C@H](O)[C@H](O)[C@H](O)COP(=O)(O)O)c2cc1C [FMN] | The FMN cofactor, situated on the C‐terminal side of the barrel, has interactions | Expression and subsequent purification led to reasonably high yields of pure, soluble, and FMN‐bound proteins | Expression and subsequent purification led to reasonably high yields of pure, soluble, and FMN‐bound proteins | Expression and subsequent purification led to reasonably high yields of pure, soluble, and FMN‐bound proteins | Expression and subsequent purification led to reasonably high yields of pure, soluble, and FMN‐bound proteins
2 | 300 ± 100 µM | NC(=O)C1=CN([C@@H]2O[C@H](COP(=O)(O)OP(=O)(O)OC[C@H]3O[C@@H](n4cnc5c(N)ncnc54)[C@H](OP(=O)(O)O)[C@@H]3O)[C@@H](O)[C@H]2O)C=CC1 [NADPH] | – | – | – | – | –

Source: article PMC12002099, “Recombinant Production and Characterization of Six Ene‐reductases from Penicillium steckii” (Chembiochem, 2025)
